The source of these data is patent US6881719B2, “β-turn peptidomimetic cyclic compounds” (McGill University, priority 2000, dated 2005).

One assay addresses T1, cell surface TrkA (Homo sapiens, UniProt P04629).
T1 construct: expressed in transfected cells
Nature of the assay: FACScan competition of mAb 5C3 binding on 4-3.6 cells. The note with it: mAb 1 nM; competitor 40 μM. From the text:
(§1) The 4-3.6 cells are B104 cells stably transfected with human trkA cDNA, and express equal levels of p75 and TrkA (TrkA+ p75+). For screening agents that activate or antagonize TrkC receptors, NIH3T3 fibroblasts were stably transfected with human TrkC cDNA. These cells respond to the ligand NT-3. For screening agents that activate or antagonize TrkA receptors, NIH3T3 fibroblasts were stably transfected with human TrkA cDNA. These cells respond to the ligand NGF.
(§2) FACScan binding assays: 4-3.6 cells (2×10^5) in FACScan binding buffer (PBS, 0.5% BSA, and 0.1% NaN3) were immunostained as described (Saragovi et al., 1998). Saturating anti-TrkA mAb 5C3, or anti-p75 mAb MC192, or control non-binding IgGs were added to cells for 1 hour at 4° C., in the presence or absence of D3 as competitor. Excess primary antibody was washed off, and cells were immunostained with fluorescinated goat-anti-mouse IgG secondary antibody. Cells were acquired on a FACScan and mean channel fluorescence of bell-shaped histograms were analyzed using the LYSIS II program.

The next assay concerns septal neuronal cultures. Kind of assay: ChAT activity in septal neuronal cultures. The class given is cell-based, rat. The note with it: compound 20 μM alone; day 8. The procedure:
Cell cultures were established from the septal area of 17-day-old rat embryos. In brief, tissue was incubated in PBS containing trypsin and DNase. Tissue pieces then were mechanically dissociated. After centrifugation, the pellet was suspended in Leibovitz's L-15 medium. Cells were plated onto 96-multiwell NUNC dishes (10^5 cells/well) coated with poly-D-lysine (5 μg/ml). Pure cultures of septal neurons were treated 1 day after plating. Drugs, prepared in medium, were added directly to the cells without changing the initial medium. The incubation continued for 8 days, at which time ChAT activity was evaluated.
At day 8 of culture, the medium was aspirated, and ice-cold lysis buffer (10 mM sodium phosphate, pH 7.4/0.1% TritonX-100—Trade-mark) was added. ChAT activity assays were performed directly in the wells using Fonnum's method (Fonnum, 1975).

Another assay has as its target T2, p75 NGF receptor subunit (Rattus norvegicus, UniProt P07174).
T2 construct: B104 rat neuroblastomas express p75 receptors; endogenous in cells
Kind of assay: FACScan competition of anti-p75 mAb MC192 binding on 4-3.6 cells.
From the text: as §1, §2

For a further assay, the system named is 4-3.6 cells (p75+TrkA+). Kind of assay: Cell survival (MTT), 4-3.6 cells.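 On % Protection: 100% equals survival with optimal NGF at 1 nM.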 The class given is cell-based, rat. As to conditions: 72 hours.
From the text: as §1
(§3) Cell lines: 5,000 cells/well in protein-free media (PFHM-II, GIBCO, Toronto) containing 0.2% bovine serum albumin (BSA) (Crystalline fraction V, Sigma, St. Louis, Mo.) were seeded in 96 well plates (Falcon, Mississauga, Ontario). The cultures were untreated, or treated with the indicated test or control ligands. Cell viability was quantitated using the MTT assay after 56-72 hours of culture. […] The OD of untreated cells were subtracted. The higher optical density of untreated primary cultures is likely due to cellular heterogeneity and to endogenous production of limiting amounts of growth factors.

The target in assay [1] is T3, HEK 293 cells expressing TrkB/TrkA IgG-C2 chimeric receptor (Homo sapiens, UniProt P04629+Q16620).
T3 construct: The IgG-C2 domain of human TrkA was generated using unique restriction sites; expressed in transfected cells
T3 sequence (P04629 299-365 limits assumed, change not shown, one chain of several): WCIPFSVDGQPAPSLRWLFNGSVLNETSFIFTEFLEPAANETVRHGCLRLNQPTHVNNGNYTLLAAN
Nature of the assay: Cell survival (MTT), HEK 293-TrkB/TrkA IgG-C2 chimera.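 On % Protection: 100% equals survival with optimal NGF at 1 nM.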 The class given is cell-based. The note with it: HEK 293-TrkB/TrkA chimera, 72 hours. From the text: The IgG-C2 domain of human TrkA was generated using unique restriction sites in the primers to allow exchange with the corresponding rat TrkB domain. The chimeric receptors were constructed by subcloning the human TrkA IgG-C2 domain into the corresponding restriction sites of the rat trkB cDNA reported in a previous work (Perez et al., 1995). Chimeric constructs were confirmed by sequencing, and were cloned into the pCDNA3 expression vector that contains a selection gene providing resistance to neomycin (G418, GIBCO). HEK293 cells were transfected using the lipofectamine plus method (GIBCO), selected with neomycin (0.5 mg/ml) and at least 3 independent subclones were obtained by limiting dilution techniques (293-TrkB/A-IgC2 chimera).
Cell lines: 5,000 cells/well in protein-free media (PFHM-II, GIBCO, Toronto) containing 0.2% bovine serum albumin (BSA) (Crystalline fraction V, Sigma, St. Louis, Mo.) were seeded in 96 well plates (Falcon, Mississauga, Ontario). The cultures were untreated, or treated with the indicated test or control ligands. Cell viability was quantitated using the MTT assay after 56-72 hours of culture. […] The OD of untreated cells were subtracted.

Assay [2] concerns embryonic rat DRG primary neuronal cultures. Nature of the assay: Cell survival (MTT), primary DRG cultures.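 On % Protection: 100% equals survival with optimal NGF at 1 nM.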 The assay is classed as cell-based. As to conditions: compound 10 μM alone; 8 days. On the procedure:
Fetal rat DRG primary cultures were established from Sprague Dawley day 17 rat embryos. All ganglia were dissected and dissociated first enzymatically with trypsin and then mechanically. Dissociated cells were cultured (10^5 cells/well) in 96 well plates pre-coated with collagen, and grown for a total of 8 days in Neuro Basal Medium containing N2 supplement (GIBCO, Toronto), antibiotics, and L-glutamine. These DRG cultures are ˜85% TrkA-expressing and are heavily dependent on TrkA signals for survival.
Primary DRG cultures: After a total of 8 days of culture with the indicated test or control ligands, cell survival were studied using the 3(4,5-Dimethylthiazolyl-2)-2,5-diphenyl tetrazolium bromide colorimetric (MTT) assay, and by microscopic observation.
as §3

The target in another assay is T4, TrkA-ECD (Homo sapiens, UniProt P04629).
T4 construct: pure soluble TrkA extracellular domain (TrkA-ECD) produced in baculovirus; made in house
T4 sequence (P04629 33-423 limits assumed): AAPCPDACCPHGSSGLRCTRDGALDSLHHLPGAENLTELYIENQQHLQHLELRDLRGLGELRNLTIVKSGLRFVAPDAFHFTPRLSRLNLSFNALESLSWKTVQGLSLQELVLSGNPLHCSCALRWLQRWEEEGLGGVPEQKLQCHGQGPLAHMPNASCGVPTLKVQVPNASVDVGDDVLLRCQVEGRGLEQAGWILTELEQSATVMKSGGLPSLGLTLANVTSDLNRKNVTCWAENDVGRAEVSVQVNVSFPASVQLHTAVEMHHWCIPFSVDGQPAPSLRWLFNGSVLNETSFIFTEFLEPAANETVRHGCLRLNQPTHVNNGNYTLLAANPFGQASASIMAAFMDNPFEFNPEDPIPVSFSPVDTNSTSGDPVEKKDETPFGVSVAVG
Kind of assay: ELISA competition of mAb 5C3 binding to immobilized TrkA-ECD. As to conditions: mAb 5C3 2 nM; competitor 40 μM. The procedure:
Direct binding studies: were done as described (Saragovi et al., 1998) using 6 ng/well of recombinant baculovirus TrkA-extracellular domain protein (TrkA-ECD) or control bovine serum albumin (BSA, Fraction V, Boehringer Mannheim) immobilized onto 96-well microtest plates. Wells were blocked with binding buffer (BB: PBS with 1% BSA) for 1 hour. Then, 50 ng/well of biotinylated D3 were added as primary reagent in BB for 40 min in the absence or presence of excess non-biotinylated D3 as competitor. Wells were washed 5 times with BB, and horseradish peroxidase (HRP)-coupled avidin (Sigma) was added as secondary reagent for 30 min. Plates were washed in BB, and peroxidase activity was determined colorimetrically using 2,2-azinobis (3-ethylbenzthiazoline sulfonic acid) (ABTS, Sigma). The optical density (OD) was measured at 414 nm in a Microplate reader (Bio-Rad). Assays were repeated at least three times, n=4.
Binding Competition: studies were as described for direct binding assays to TrkA-ECD, except that as primary reagent 50 ng anti-TrkA mAb 5C3/well were added in BB, in the presence or absence of D3 or controls as competitors as described (Saragovi et al., 1998). Wells were washed 5 times with BB, and HRP-coupled goat anti-mouse was added as secondary reagent for 30 min. Plates were washed in BB, and peroxidase activity were determined. Assays were repeated at least three times, n=4.
On the technique in general: ELISA stands for enzyme-linked immunosorbent assay.

Assay [3] has as its target p75 NGF receptor on B104 rat neuroblastoma cells and 4-3.6 cells (rat) (UniProt P07174). Kind of assay: FACScan, 4-3.6 cells, mAb 1 nM, no competitor.
In assay [4] the target is human TrkA expressed on transfected cells (4-3.6 cells; NIH3T3-TrkA cells) (human) (UniProt P04629). Kind of assay: cell-based or functional assay.
Chain of human TrkA expressed on transfected cells (4-3.6 cells; NIH3T3-TrkA cells) (human) (P04629 33-796): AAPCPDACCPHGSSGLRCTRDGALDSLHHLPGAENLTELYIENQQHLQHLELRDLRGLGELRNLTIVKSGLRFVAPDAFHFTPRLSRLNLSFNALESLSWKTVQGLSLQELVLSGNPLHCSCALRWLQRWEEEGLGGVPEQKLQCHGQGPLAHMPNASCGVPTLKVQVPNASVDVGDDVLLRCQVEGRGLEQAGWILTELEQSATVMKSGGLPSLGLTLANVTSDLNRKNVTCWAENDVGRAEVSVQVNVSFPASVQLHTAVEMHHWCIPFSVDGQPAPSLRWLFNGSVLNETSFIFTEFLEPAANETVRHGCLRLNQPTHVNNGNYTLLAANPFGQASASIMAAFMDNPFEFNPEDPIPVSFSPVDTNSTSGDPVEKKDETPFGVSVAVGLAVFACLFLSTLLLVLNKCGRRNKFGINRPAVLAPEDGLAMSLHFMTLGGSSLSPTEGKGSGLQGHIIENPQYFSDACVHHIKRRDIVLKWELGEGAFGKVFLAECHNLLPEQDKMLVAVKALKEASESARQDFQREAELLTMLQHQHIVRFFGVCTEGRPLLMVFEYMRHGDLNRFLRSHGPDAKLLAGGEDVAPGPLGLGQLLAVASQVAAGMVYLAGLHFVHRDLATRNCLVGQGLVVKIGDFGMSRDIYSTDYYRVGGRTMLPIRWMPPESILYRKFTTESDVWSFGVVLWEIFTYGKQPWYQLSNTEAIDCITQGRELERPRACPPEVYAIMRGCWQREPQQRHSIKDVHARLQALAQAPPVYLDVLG
In assay [5] the target is human TrkC expressed on transfected NIH3T3 fibroblasts (human) (UniProt Q16288). Kind of assay: cell-based or functional assay.
Chain of human TrkC expressed on transfected NIH3T3 fibroblasts (human) (Q16288 32-839): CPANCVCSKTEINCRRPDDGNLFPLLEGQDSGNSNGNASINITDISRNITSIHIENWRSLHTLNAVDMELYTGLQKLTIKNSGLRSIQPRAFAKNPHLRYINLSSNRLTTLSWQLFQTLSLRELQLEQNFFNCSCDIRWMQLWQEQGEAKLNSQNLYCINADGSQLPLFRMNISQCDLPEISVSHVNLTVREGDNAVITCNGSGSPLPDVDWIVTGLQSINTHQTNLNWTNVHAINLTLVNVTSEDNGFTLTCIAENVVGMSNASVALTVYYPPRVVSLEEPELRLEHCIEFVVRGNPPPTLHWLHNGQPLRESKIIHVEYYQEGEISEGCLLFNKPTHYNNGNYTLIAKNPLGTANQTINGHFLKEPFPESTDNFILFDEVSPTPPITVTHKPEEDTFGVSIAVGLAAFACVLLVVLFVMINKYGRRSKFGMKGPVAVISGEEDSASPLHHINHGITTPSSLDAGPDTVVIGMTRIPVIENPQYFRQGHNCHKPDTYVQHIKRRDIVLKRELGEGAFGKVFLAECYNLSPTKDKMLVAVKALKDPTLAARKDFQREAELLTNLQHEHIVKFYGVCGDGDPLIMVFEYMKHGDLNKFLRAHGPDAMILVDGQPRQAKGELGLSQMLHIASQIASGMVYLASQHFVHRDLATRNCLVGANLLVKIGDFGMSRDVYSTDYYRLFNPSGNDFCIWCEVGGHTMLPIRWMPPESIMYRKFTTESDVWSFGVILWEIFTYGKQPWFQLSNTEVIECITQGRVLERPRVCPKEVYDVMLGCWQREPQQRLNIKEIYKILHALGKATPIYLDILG

Chain of p75 NGF receptor on B104 rat neuroblastoma cells and 4-3.6 cells (rat) (P07174 30-425): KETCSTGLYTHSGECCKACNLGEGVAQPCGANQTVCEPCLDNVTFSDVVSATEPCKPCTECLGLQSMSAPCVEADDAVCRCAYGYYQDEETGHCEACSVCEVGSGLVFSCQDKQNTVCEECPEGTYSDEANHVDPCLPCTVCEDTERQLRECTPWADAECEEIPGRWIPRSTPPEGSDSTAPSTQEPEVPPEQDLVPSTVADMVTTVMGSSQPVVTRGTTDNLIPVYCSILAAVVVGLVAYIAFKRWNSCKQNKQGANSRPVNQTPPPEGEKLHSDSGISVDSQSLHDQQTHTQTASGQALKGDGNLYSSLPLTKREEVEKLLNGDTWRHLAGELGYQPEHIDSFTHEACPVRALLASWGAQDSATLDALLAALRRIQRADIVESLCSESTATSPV
T2 sequence (P07174 30-425): as above
T1 sequence (P04629 33-796): as the sequence (P04629 33-796) above

Consider `NCCCC[C@@H]1NC(=O)[C@H](CCC(=O)O)NC(=O)c2cc([N+](=O)[O-])ccc2SCC(C(N)=O)NC1=O` (stereo partly drawn) [C59, EKCys], for which the “% Maximal binding of mAb 5C3” value on cell surface TrkA worked out at 97 ± 6%. Moreover, in the assay on septal neuronal cultures, the “ChAT Activity” value is on record as 0.30 ± 0.05 pmol Ach/min/well. Also, the “Fold Increase (ChAT activity)” value with septal neuronal cultures is reported as 1. The “inhibition of mAb MC192 binding” value at p75 NGF receptor subunit is recorded as “did not inhibit”. Besides, the “% Protection” value was 41 ± 4% in the assay with 4-3.6 cells (p75+TrkA+) (compound 10 μM + 10 pM NGF); 2 ± 1% in the assay on 4-3.6 cells (p75+TrkA+) (compound 10 μM alone); 21 ± 6% in assay [1] (compound 10 μM + 10 pM NGF); −1 ± 2% in assay [1] (compound 10 μM alone); 0 ± 1% in [2]. Moreover, the “Optical Density” value in the assay with 4-3.6 cells (p75+TrkA+) (compound 10 μM + 10 pM NGF) was determined as 209 ± 17; in the assay on 4-3.6 cells (p75+TrkA+) (compound 10 μM alone), 76 ± 4; in [1] (compound 10 μM + 10 pM NGF) it was 90 ± 9; in assay [1] (compound 10 μM alone), 30 ± 7; in [2], 271 ± 8. The “% Binding of mAb 5C3 to TrkA-ECD” value at TrkA-ECD was 96 ± 9%.

In [3], anti-p75 monoclonal antibody MC192 displayed a % Maximal binding of 100%.

B1: Neurotrophin-3 (NT-3) (ligand, UniProt P20783 139-257, looked up, species assumed)
Neurotrophin-3: YAEHKSHRGEYSVCDSESLWVTDKSSAIDIRGHQVTVLGEIKTGNSPVKQYFYETRCKEARPVKNGCRGIDDKHWNSQCKTSQTYVRALTSENNKLVGWRWIRIDTSCVCALSRKIGRT
B1 registered a % Protection (MTT, NIH-TrkA), 10 pM NT-3 in assay [4] of 3%. The molecule further returned a % Protection (MTT, NIH-TrkC), 10 pM NT-3 in assay [5] of 29%.
